Data: US20240016819A1, “CANNABINOIDS FOR USE IN THE TREATMENT OF EPILEPSY” (GW RESEARCH LIMITED, priority 2020, published 2024)

System: seizures in patients with TSC
Assay: Mean total seizures over time in TSC patients after administration of CBD (FIG. 2)
Type: in vivo, human
Conditions: starting dose 5 mg/kg/day, 2 week titration period
Description: Patients with TSC were administered a highly purified extract of cannabidiol (CBD) obtained from a cannabis plant described herein. Similar to Example 1, patients with a TSC diagnosis were administered a starting dose of 5 mg/kg/day CBD in addition to their baseline anti-epileptic drug (AED) regimen or placebo.
The daily dose was increased by 5 mg/kg increments until intolerance occurred or a maximum dose of 25 mg/kg/day was achieved. The starting dose increase from 5 mg/kg/day to 10 mg/kg/day occurred 7 days after administration of the first dose of CBD. […] The titration period occurred over two weeks. For patients in need of further seizure reduction, the dosage of 20 mg/kg/day was increased up to 25 mg/kg/day after one week.
All patients were taking at least two concomitant anti-epileptic drugs. These included clobazam; levetiracetam; topiramate; stiripentol; phenobarbital; lacsamide; valproic acid; zonisamide. The average number of concomitant antiepileptic drugs being taken was 2.7. The majority took either clobazam and/or valproic acid.
Prior to treatment with CBD, patients recorded the number of seizures they experienced. This established the baseline levels. During the course of treatment, patients recorded the number of seizures experienced each day.

For `C=C(C)[C@@H]1CCC(C)=C[C@H]1c1c(O)cc(CCCCC)cc1O` [CBD Extract, Cannabidiol], the “mean total seizures over time” value was “starts decreasing during the titration period”.
